From publication PMC4126480, “Evaluation of drug interaction potential of Labisia pumila (Kacip Fatimah) and its constituents” (Frontiers in Pharmacology, 2014)

Molecular target: T1, PXR (Homo sapiens, UniProt O75469)
T1 construct: expressed in transfected cells; host or cells: HepG2 cells, transient electroporation with pSG5-PXR and the CYP3A4-PXRE-LUC reporter
T1 sequence (O75469 1-434): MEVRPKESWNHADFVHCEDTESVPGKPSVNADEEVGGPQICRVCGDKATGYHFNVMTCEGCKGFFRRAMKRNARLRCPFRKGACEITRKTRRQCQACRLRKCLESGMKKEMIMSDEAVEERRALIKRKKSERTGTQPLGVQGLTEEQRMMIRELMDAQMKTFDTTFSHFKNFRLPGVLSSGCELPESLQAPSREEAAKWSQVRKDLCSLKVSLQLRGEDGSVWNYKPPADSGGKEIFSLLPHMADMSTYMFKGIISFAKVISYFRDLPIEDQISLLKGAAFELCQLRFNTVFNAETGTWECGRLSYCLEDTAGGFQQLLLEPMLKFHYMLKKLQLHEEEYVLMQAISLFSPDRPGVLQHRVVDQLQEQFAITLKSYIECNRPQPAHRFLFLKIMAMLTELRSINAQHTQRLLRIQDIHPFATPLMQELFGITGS
Assay: PXR activation, luciferase reporter gene assay in HepG2 cells
Format: cell-based
Experimental: The modulation of PXR activity by test samples was determined in HepG2 cells transiently transfected with pSG5-PXR (25 μg) and PCR5 plasmid DNA (25 μg) by electroporation at 180 V, 1 pulse for 70 msec. The cells were plated in 96-well plates at a density of 50,000 cells per well. After 24 h, test samples and drug controls were added at various concentrations. After additional 24 hour incubation, the media was aspirated and 40 μL of luciferase reagent (Promega Corporation, Madison, WI, USA) was added to each well and luminescence was measured on Spectramax M5 plate reader (Molecular Devices, Sunnyvale, CA, USA). The fold induction in luciferase activity in the treated cells was calculated in comparison to vehicle treated cells.

SMILES: CCCC/C=C\CCCCCCCCCc1cc(O)cc2oc3cc(OC)c(O)c(CCCCCCCCC/C=C\CCCC)c3c12 [Fatimahol]
- Induction of PXR activity (HepG2, 30 μM (highest tested concentration), vs vehicle): 1.8 fold
- Induction of PXR activity at lower concentration (HepG2, below 30 μM): not significant
